The nature of the data set: Mouse Activity and Screen Test Procedure (MAST): screen test failure (ST). To be noted: for Inhibition of screen test failure: percent of mice falling off the screen; for MAST ST LAD: lowest dose at which an A rating is achieved, screen test, i.p., mouse. Here is the method:
Nine unfasted Swiss-Webster male mice weighing 20-30 g are equally divided into three groups for each drug dose to be tested. That is, data for each dose level was generated by three separate groups of three mice each.
A minimum of three dose levels (10, 30, and 100 mg/kg) are tested for each drug. Treatments are administered intraperitoneally one hour prior to testing. All dosages are calculated as parent compound and given in volumes of 10 ml/kg. Compounds are dissolved or suspended in 0.2% Methocel. Control animals are injected with Methocel.
Testing: A two part testing procedure is started one hour postinjection. First, the screen test (ST) is performed (see Pharmac. Biochem. Behav. 6, 351-353, 1977). Briefly this test consists of placing mice on individual wire screens which are then rotated 180 degrees at the start of a 60 second observation period. The number of mice falling off the inverted screen is recorded.
Data: The data obtained from the screen test are expressed as percent of mice falling off the screen. Data derived from locomotor activity of drug treated mice are compared to the activity of vehicle treated animals and are expressed as percent inhibition of spontaneous locomotion. All percentages reported for inhibition of locomotion (LI) are based upon data accumulated for one hour. Both phases of testing are graded: A=60-100%; C=31-59%; and N=0-30%. An overall dose rating is obtained by the following criteria:
LAD refers to the lowest dose at which an A rating is achieved. […] The compounds are identified in the Examples.

Turning to `OC[C@H]1O[C@@H](n2cnc3c(NCCC(c4ccccc4)c4ccccc4)ncnc32)[C@H](O)[C@@H]1O` [Example 2, N^6-(3,3-Diphenylpropyl)adenosine], the “MAST ST LAD” value is on record as above 100 mg/kg. In addition, the “Inhibition of screen test failure” value (10 mg/kg i.p.) came out at 0%. The “Inhibition of screen test failure” value (30 mg/kg i.p.) came out at 0%. The “Inhibition of screen test failure” value (100 mg/kg i.p.) is given as 0%. Consider `OC[C@H]1O[C@@H](n2cnc3c(NCC(c4ccccc4)c4ccccc4)nc(Cl)nc32)[C@H](O)[C@@H]1O` [Example 3, N^6-(2,2-Diphenylethyl)-2-chloroadenosine], for which the “MAST ST LAD” value is recorded as above 100 mg/kg. Besides, the “Inhibition of screen test failure” value (10 mg/kg i.p.) was determined as 0%. Also, for the setting “30 mg/kg i.p.”, the “Inhibition of screen test failure” value stood at 11%. The “Inhibition of screen test failure” value (100 mg/kg i.p.) turned out to be 44%. For the compound `Nc1nc(NCC(c2ccccc2)c2ccccc2)c2ncn([C@@H]3O[C@H](CO)[C@@H](O)[C@H]3O)c2n1` [Example 4, N^6-(2,2-Diphenylethyl)-2-aminoadenosine], the “MAST ST LAD” value is recorded as above 100 mg/kg. Besides, the “Inhibition of screen test failure” value (10 mg/kg i.p.) is recorded as 0%. Further, where the note is “30 mg/kg i.p.”, the “Inhibition of screen test failure” value was 11%. The “Inhibition of screen test failure” value (100 mg/kg i.p.) is on record as 22%. Take `OC[C@H]1O[C@@H](n2cnc3c(NC(c4ccccc4)c4ccccc4)ncnc32)[C@H](O)[C@@H]1O` [Example 5, N^6 -Diphenylmethyladenosine]: the “MAST ST LAD” value is above 100 mg/kg. Consider `OC[C@H]1O[C@@H](n2cnc3c(NCCCC(c4ccccc4)c4ccccc4)ncnc32)[C@H](O)[C@@H]1O` [Example 6, N^6-(4,4-Diphenylbutyl)adenosine], for which the “MAST ST LAD” value was above 100 mg/kg. For `OC[C@H]1O[C@@H](n2cnc3c(NCCCCC(c4ccccc4)c4ccccc4)ncnc32)[C@H](O)[C@@H]1O` [Example 7, N^6-(5,5-Diphenylpentyl)adenosine], the “MAST ST LAD” value is above 100 mg/kg. With `CC(CNc1ncnc2c1ncn2[C@@H]1O[C@H](CO)[C@@H](O)[C@H]1O)(c1ccccc1)c1ccccc1` [Example 8, N^6-(2,2-Diphenylpropyl)adenosine], the “MAST ST LAD” value is recorded as above 100 mg/kg. For the compound `Cc1cccc(C(CNc2ncnc3c2ncn3[C@@H]2O[C@H](CO)[C@@H](O)[C@H]2O)c2ccccc2)c1` (stereo partly drawn) [Example 9, N^6-(2-(3-Methylphenyl)-2-phenylethyl)adenosine], the “MAST ST LAD” value was 100 mg/kg. Take `OC[C@H]1O[C@@H](n2cnc3c(NCC(c4ccccc4)c4ccc(F)cc4)ncnc32)[C@H](O)[C@@H]1O` (stereo partly drawn) [Example 10, N^6-(2-(4-Fluorophenyl)-2-phenylethyl)adenosine]: the “MAST ST LAD” value is reported as above 100 mg/kg. Turning to `OC[C@H]1O[C@@H](n2cnc3c(NCC(c4ccccc4)c4ccc(F)cc4)nc(Cl)nc32)[C@H](O)[C@@H]1O` (stereo partly drawn) [Example 11, N^6-(2-(4-Fluorophenyl)-2-phenylethyl)-2-chloroadenosine], the “MAST ST LAD” value is above 100 mg/kg.

In the case of `Nc1nc(NCC(c2ccccc2)c2ccc(F)cc2)c2ncn([C@@H]3O[C@H](CO)[C@@H](O)[C@H]3O)c2n1` (stereo partly drawn) [Example 12, N^6-(2-(4-Fluorophenyl)-2-phenylethyl)-2-amino adenosine], the “MAST ST LAD” value is above 100 mg/kg. Consider `OC[C@H]1O[C@@H](n2cnc3c(NCC(c4ccc(F)cc4)c4ccc(F)cc4)ncnc32)[C@H](O)[C@@H]1O` [Example 13, N^6-(2,2-Di-(4-fluorophenyl)ethyl)adenosine], for which the “MAST ST LAD” value was above 100 mg/kg. Turning to `OC[C@H]1O[C@@H](n2cnc3c(NCC(c4ccccc4)c4cccc(Cl)c4)ncnc32)[C@H](O)[C@@H]1O` (stereo partly drawn) [Example 14, N^6-(2-(3-Chlorophenyl)-2-phenylethyl)adenosine], the “MAST ST LAD” value was above 100 mg/kg. Take `OC[C@H]1O[C@@H](n2cnc3c(NCC(c4ccccc4)c4ccc(Cl)cc4)ncnc32)[C@H](O)[C@@H]1O` (stereo partly drawn) [Example 15, N^6-(2-(4-Chlorophenyl)-2-phenylethyl)adenosine]: the “MAST ST LAD” value is above 100 mg/kg. The same measure, in the same setting: in the case of `Nc1nc(NCC(c2ccccc2)c2ccc(Cl)cc2)c2ncn([C@@H]3O[C@H](CO)[C@@H](O)[C@H]3O)c2n1` (stereo partly drawn) [Example 16] it was above 100 mg/kg. Consider `OC[C@H]1O[C@@H](n2cnc3c(NCC(c4ccc(Cl)cc4)c4ccc(Cl)cc4)ncnc32)[C@H](O)[C@@H]1O` [Example 17, N^6-(2,2-Di(4-chlorophenyl)ethyl)adenosine], for which the “MAST ST LAD” value was above 100 mg/kg. Regarding `Nc1nc(NCC(c2ccc(Cl)cc2)c2ccc(Cl)cc2)c2ncn([C@@H]3O[C@H](CO)[C@@H](O)[C@H]3O)c2n1` [Example 18], the “MAST ST LAD” value is given as above 30 mg/kg. For the compound `COc1ccc(C(CNc2ncnc3c2ncn3[C@@H]2O[C@H](CO)[C@@H](O)[C@H]2O)c2ccccc2)cc1` (stereo partly drawn) [Example 19, N^6-(2-(4-Methoxyphenyl)-2-phenylethyl)adenosine], the “MAST ST LAD” value was determined as 30 mg/kg.

For the compound `CC(CNc1nc(N)nc2c1ncn2[C@@H]1O[C@H](CO)[C@@H](O)[C@H]1O)(c1ccccc1)c1ccccc1` [Example 21, N^6-(2,2-Diphenylpropyl)-2-aminoadenosine], the “MAST ST LAD” value was above 100 mg/kg. On to `OC[C@H]1O[C@@H](n2cnc3c(NCC(O)(c4ccccc4)c4ccccc4)ncnc32)[C@H](O)[C@@H]1O` [Example 22, N^6-(2,2-Diphenyl-2-hydroxyethyl)adenosine], for which the “MAST ST LAD” value turned out to be 100 mg/kg.

In the case of `Nc1nc(NCC(O)(c2ccccc2)c2ccccc2)c2ncn([C@@H]3O[C@H](CO)[C@@H](O)[C@H]3O)c2n1` [Example 23, N^6-(2,2-Diphenyl-2-hydroxyethyl)-2-aminoadenosine], the “MAST ST LAD” value is given as above 100 mg/kg. Regarding `COC(=O)C(CNc1ncnc2c1ncn2[C@@H]1O[C@H](CO)[C@@H](O)[C@H]1O)(c1ccccc1)c1ccccc1` [Example 24, N^6-(2-Carbomethoxy-2,2-diphenylethyl)adenosine], the “MAST ST LAD” value was above 30 mg/kg. In the case of `CC(=O)OC[C@H]1O[C@@H](n2cnc3c(NCC(c4ccccc4)c4ccccc4)ncnc32)[C@H](OC(C)=O)[C@@H]1OC(C)=O` [Example 25, 2',3',5'-Tri-O-acetyl-N^6-(2,2-diphenylethyl)adenosine], the “MAST ST LAD” value was above 100 mg/kg.

Consider `O=C(OC[C@H]1O[C@@H](n2cnc3c(NCC(c4ccccc4)c4ccccc4)ncnc32)[C@H](OC(=O)c2ccccc2)[C@@H]1OC(=O)c1ccccc1)c1ccccc1` [Example 26, 2',3',5'-Tri-O-benzoyl-N^6-(2,2-diphenylethyl) adenosine], for which the “MAST ST LAD” value is above 100 mg/kg. Regarding `CC(=O)OC[C@H]1O[C@@H](n2cnc3c(NCC(c4ccccc4)c4ccccc4)nc(Cl)nc32)[C@H](OC(C)=O)[C@@H]1OC(C)=O` [Example 27, 2',3',5'-Tri-O-acetyl-N^6-(2,2-diphenylethyl)-2-chloroadenosine], the “MAST ST LAD” value is recorded as above 100 mg/kg. On to `O=P(O)(O)OC[C@H]1O[C@@H](n2cnc3c(NCC(c4ccccc4)c4ccccc4)ncnc32)[C@H](O)[C@@H]1O` [Example 28, N^6-(2,2-Diphenylethyl)adenosine-5'-phosphate], for which the “MAST ST LAD” value is reported as above 30 mg/kg.

Turning to `CC1(C)O[C@@H]2[C@H](O1)[C@@H](CO)O[C@H]2n1cnc2c(NCC(c3ccccc3)c3ccccc3)ncnc21` [Example 29, 2',3'-O-Isopropylidene-N^6-(2,2-diphenylethyl) adenosine], the “MAST ST LAD” value is above 100 mg/kg.

The record behind these values is patent US4657898A, “N^6 -substituted adenosines and method of use” (Warner-Lambert Company, priority 1985, dated 1987).
